Tests used:
[1] = Loading of other small molecules into the nanoparticles and their release; format: physicochemical; conditions: 10%, 20% or 40% small molecule
Experimental: The formulation procedure used is the same as that used in FIG. 1. Release was measured by absorbance maximum at 280 nm, 300 nm, and 340 nm, respectively. 22.5 mg of PLGA and 7.5 mg of PLGA-PEG were used along with 3 mg (10%), 6 mg (20%), or 12 mg (40%) of small molecule. Note that the release profile can be delayed by loading less drug. Note that the encapsulation efficiency can increase (epacadostat) or decrease (resiquimod, ruxolitinib) by increasing initial loading amount.

[2] = SD-208 solubility, loading and release from PEG-PLGA nanoparticles; format: physicochemical
Experimental: PLGA-based nanoparticles were prepared using single-emulsion evaporation. PLGA (AP041, acid end-capped, 50:50, 10-15 kDa, Akina) was blended with Mal-PEG-PLGA (AI53, diblock copolymer, 50:50, 5-10 kDa, Akina) at 25% w/w. The polymers were dissolved in 1 mL dichloromethane (Sigma) and added to 6 mL of ice-cold 0.25% PVA (30,000-70,000 g/mol, Sigma) in 50 mM phosphate buffer, pH 5.8. The two phases were emulsified using a sonic probe (Qsonica Q700 with microtip, amplitude 10, 3 s power with 2 s break). […] The emulsion was stirred at room temperature for 3 h to evaporate the dichloromethane and afterwards purified by two wash-spin cycles in PBS at 20,000 g for 10 min. Nanoparticles s were assessed for size distribution using a Zetasizer Nano series ZS90, and drug encapsulation was determined by absorbance at 370 nm.
Encapsulation efficiency and drug release kinetics were analyzed by its absorbance maximum at 370 nm (FIG. 43A).

CD8+ T cells = experiment: CD8+ T cell activation with anti-CD3/CD28 beads in presence of TGFβ1 (proliferation, granzyme B, IFNγ); format: cell-based, mouse
Experimental: FIG. 34. […] Intracellular granzyme B expression was assessed by flow cytometry, n=3±SD. […] Fold change of interferon-γ (IFNγ) was measured by ELISA, n=4±SEM.
In vitro binding of nanoparticles was assessed after incubation of 250,000 enriched T cells with fluorescently (DiD, Life Technologies) labelled nanoparticles at different concentrations for 30 min at 37° C. After the incubation, T cells were washed 3 to 5 times in PBS and directly assessed by flow cytometry for DiD fluorescence. T cells isolated from OT-I Rag^−/− mice were activated by Dynabeads Mouse T-Activator CD3/CD28 (Thermo Scientific) at a ratio of 2:1 T cell to bead or by ova-expressing B16 melanoma cells at a ratio of 10:1 T cell to B16 cell. Carboxyfluorescein succinimidyl ester (CFSE, BioLegend) or cell trace violet (CTV, Thermo Scientific) was used to assess T cell proliferation; the labeling was carried out according to the manufacturer's recommendations. Mouse TGFβ1 was purchased from Cell Signaling Technologies, and T cell supernatants were analyzed by mouse IFN-γ ELISA MAX™ (BioLegend).

[3] = SD-208 released from nanoparticles versus free inhibitor in DMSO

change of encapsulation efficiency by increasing initial loading amount [1]	SMILES	amount entrapped in PEG-PLGA nanoparticles [2] [μg/mg polymer]	water solubility [2]	release from the nanoparticles ([2]; PBS containing 10% serum)	TGFβ-mediated inhibition of T cell proliferation (CD8+ T cells; SD-208 released from nanoparticles versus free SD-208, TGFβ1 2 ng/mL, 72 hours)	granzyme B (CD8+ T cells; [3])	interferon γ (IFNγ) (CD8+ T cells; [3])
increase	NS(=O)(=O)NCCNc1nonc1/C(=N/O)Nc1ccc(F)c(Br)c1 [epacadostat]	–	–	–	–	–	–
decrease	N#CC[C@H](C1CCCC1)n1cc(-c2ncnc3[nH]ccc23)cn1 [ruxolitinib]	–	–	–	–	–	–
–	Fc1ccc(Cl)cc1-c1nc(Nc2ccncc2)c2nccnc2n1 [SD-208]	20	poorly water soluble	released slowly from the nanoparticles over the course of weeks	reversed in a comparable manner	upregulated to a similar extent as free inhibitor	upregulated to a similar extent as free inhibitor

Source: US20200179528A9, “IMMUNE CELL-TARGETED PARTICLES” (Dana-Farber Cancer Institute, Inc., priority 2015, published 2020)
